Test system: Herceptin
Experiment: spot phage ELISA against Herceptin (off-target)
Assay type: binding
Details: for SIGNAL: NOISE RATIO HERCEPTIN: spot phage ELISA signal against Herceptin over ELISA signal against BSA, Tables 3 and 4; for HERCEPTIN S/W: signal minus noise (BSA); for HERCEPTIN S/W / HERCEPTIN S/N: Table 5; for HERCEPTIN S/N: signal to noise ratio
Procedure: Phage pools of linear peptide libraries (Stanger, K. et al. Allosteric peptides bind a caspase zymogen and mediate caspase tetramerization. Nat Chem Biol 8, 655-660 (2012)) were cycled through rounds of binding selections with hFZD7 CRD-Fc following standard protocols (Tonikian et al. (2007) Nat Protoc 2, 1368-1386). Herceptin (10 μM) was included in sorting solution to block potential Fc binders during all rounds of sorting. After four rounds of binding selection, individual phage clones were analyzed in a high-throughput spot phage ELISA using plate-immobilized FZD7 CRD-Fc as target or off-target for specificity test (hFZD8 CRD-Fc and Herceptin). To measure off-target affinity, duplicate phage particle were assayed against BSA to measure non-specific binding. Clones with a phage-binding signal >0.5 and signal-to-noise ratio >10 were considered to be positive clones and were subjected to DNA sequence analysis. General data handling was done using Microsoft Excel 2010 unless otherwise noted.
In order to investigate the role of FZD7 in intestinal stem cell function, experiments were performed to identify ligands that selectively bind FZD7 CRD. A naïve linear peptide library (4-16 amino acids in length) and a cyclic peptide library were screened via phage display against FZD7 CRD-Fc. Peptides found to bind FZD7 CRD-Fc were then screened via spot phage ELISA against FZD7 CRD-Fc, FZD8 CRD-Fc, and Herceptin to identify candidates that bind FZD7 CRD but not FZD8 CRD or herceptin. The amino acid sequences of candidate FZD7 CRD-binding linear peptides are shown in Table 3 below, and the amino acid sequences of candidate FZD7 CRD-binding cyclic peptides are shown in Table 4.
Briefly, sixty Fz7-21-derived peptides (see Table 5), each containing at least one random alanine and/or valine/and/or aspartic acid and/or serine substitution, were generated and screened via spot phage ELISA (i.e., as described above) against FZD7 CRD-Fc and Herceptin.

In the case of 2 (TYFDDICNLILPWANP) [compound 2], the “SIGNAL: NOISE RATIO HERCEPTIN” value is reported as 1.2.

With 3 (PQDLLDWCHYMIVSSD) [compound 3] the “SIGNAL: NOISE RATIO HERCEPTIN” value was 1.2.

For 4 (ACSYVIDLWNQCLT) [compound 4], the “SIGNAL: NOISE RATIO HERCEPTIN” value was 1.1.

For 6 (DTDLHQWCLWFT) [compound 6], the “SIGNAL: NOISE RATIO HERCEPTIN” value was 1.1.

In the case of 7 (FWMLLQEGFAFWFP) [compound 7], the “SIGNAL: NOISE RATIO HERCEPTIN” value is reported as 1.3.

For 8 (FELLLDLGDLIRLW) [compound 8], the “SIGNAL: NOISE RATIO HERCEPTIN” value was 1.8.

In the case of 9 (ACSYVIDLWNLCLR) [compound 9], the “SIGNAL: NOISE RATIO HERCEPTIN” value is reported as 1.3.

For 10 (ASELHDWCRMMFPW) [compound 10], the “SIGNAL: NOISE RATIO HERCEPTIN” value was 1.2.

For 12 (PPNVHEGCWSMFPW) [compound 12], the “SIGNAL: NOISE RATIO HERCEPTIN” value was 1.1.

With 14 (DTDLLQWCLWFT) [compound 14] the “SIGNAL: NOISE RATIO HERCEPTIN” value was 1.2.

With 17 (GDFWPGSLLWEILV) [compound 17] the “SIGNAL: NOISE RATIO HERCEPTIN” value was 1.2.

In the case of 20 (FLPDQHSHLFLPWGEP) [compound 20], the “SIGNAL: NOISE RATIO HERCEPTIN” value is reported as 1.1.

22 (VFVPFSELTSLC) [compound 22] was tested, and the “SIGNAL: NOISE RATIO HERCEPTIN” value was 1.1.

In the case of 24 (NAFWRDQCLEWFIICL) [compound 24], the “SIGNAL: NOISE RATIO HERCEPTIN” value is reported as 1.2.

With 25 (EHDLLLRAMNSFVLIF) [compound 25] the “SIGNAL: NOISE RATIO HERCEPTIN” value was 1.4.

In the case of 26 (FCENPYIICW) [compound 26], the “SIGNAL: NOISE RATIO HERCEPTIN” value is reported as 1.1.

With 27 (NPPPECFLSK) [compound 27] the “SIGNAL: NOISE RATIO HERCEPTIN” value was 1.2.

For 29 (ERRVCYPWFEVSQP) [compound 29], the “SIGNAL: NOISE RATIO HERCEPTIN” value was 1.3.

In the case of 30 (LSSGKKVSSYWFNFWF) [compound 30], the “SIGNAL: NOISE RATIO HERCEPTIN” value is reported as 3.8.

In the case of 31 (FWFDFWFG) [compound 31], the “SIGNAL: NOISE RATIO HERCEPTIN” value is reported as 4.1.

With 32 (SSDFSGCLSWCDLIFG) [compound 32] the “SIGNAL: NOISE RATIO HERCEPTIN” value was 1.22.

In the case of 34 (HLSDVCCSDWCDLVFW) [compound 34], the “SIGNAL: NOISE RATIO HERCEPTIN” value is reported as 0.99.

35 (TSDFSWCLSWCDLIFW) [compound 35] was tested, and the “SIGNAL: NOISE RATIO HERCEPTIN” value was 1.19.

With 36 (FDFCTVMPHFIYCPGD) [compound 36] the “SIGNAL: NOISE RATIO HERCEPTIN” value was 1.13.

For 37 (FDFCSVMPHFIYCPGD) [compound 37], the “SIGNAL: NOISE RATIO HERCEPTIN” value was 1.10.

In the case of 38 (HLSDVFCSDWCDLVFW) [compound 38], the “SIGNAL: NOISE RATIO HERCEPTIN” value is reported as 1.14.

With 39 (VAADDLAAWCHVMY) [compound 39] the “HERCEPTIN S/W” value was 0.0 and the “HERCEPTIN S/N” value was 1.4.

With 42 (APSDDVAFWCHVMY) [compound 42] the “HERCEPTIN S/W” value was 0.0 and the “HERCEPTIN S/N” value was 1.6.

In the case of 43 (APADDVEFWCHVMY) [compound 43], the “HERCEPTIN S/W” value is reported as 0.0 and the “HERCEPTIN S/N” value is reported as 1.8.

With 44 (APSDDLEFWCHVMY) [compound 44] the “HERCEPTIN S/W” value was 0.0 and the “HERCEPTIN S/N” value was 1.3.

For 45 (APADDLEAWCHVMY) [compound 45], the “HERCEPTIN S/W” value was 0.0 and the “HERCEPTIN S/N” value was 1.2.

With 46 (APSDDLEFWCHAMY) [compound 46] the “HERCEPTIN S/W” value was 0.0 and the “HERCEPTIN S/N” value was 1.3.

In the case of 47 (VASDDLEAWCHVMY) [compound 47], the “HERCEPTIN S/W” value is reported as 0.0 and the “HERCEPTIN S/N” value is reported as 1.4.

48 (AAADDLEFWCHVMY) [compound 48] was tested, and the “HERCEPTIN S/W” value was 0.0 and the “HERCEPTIN S/N” value was 1.2.

49 (AASDDLAAWCHVMY) [compound 49] was tested, and the “HERCEPTIN S/W” value was 0.0 and the “HERCEPTIN S/N” value was 1.8.

In the case of 50 (AASDDLESWCHVMY) [compound 50], the “HERCEPTIN S/W” value is reported as 0.0 and the “HERCEPTIN S/N” value is reported as 1.2.

For 51 (APADDLAFWCHVMY) [compound 51], the “HERCEPTIN S/W” value was 0.0 and the “HERCEPTIN S/N” value was 1.3.

For 52 (LPADDLAVWCDVMY) [compound 52], the “HERCEPTIN S/W” value was 0.0 and the “HERCEPTIN S/N” value was 1.5.

In the case of 53 (LPSDDLESWCHVMY) [compound 53], the “HERCEPTIN S/W” value is reported as 0.0 and the “HERCEPTIN S/N” value is reported as 1.2.

For 54 (AAADDLEVWCHVMY) [compound 54], the “HERCEPTIN S/W” value was 0.0 and the “HERCEPTIN S/N” value was 1.4.

In the case of 55 (VAADALEFWCHVMY) [compound 55], the “HERCEPTIN S/W” value is reported as 0.0 and the “HERCEPTIN S/N” value is reported as 1.3.

In the case of 56 (APSDDLAAWCHVVY) [compound 56], the “HERCEPTIN S/W” value is reported as 0.0 and the “HERCEPTIN S/N” value is reported as 1.2.

In the case of 57 (AAADDLAAWCDVMY) [compound 57], the “HERCEPTIN S/W” value is reported as 0.0 and the “HERCEPTIN S/N” value is reported as 1.4.

With 58 (VASDDLEFWCHVMY) [compound 58] the “HERCEPTIN S/W” value was 0.0 and the “HERCEPTIN S/N” value was 1.3.

In the case of 59 (AAADDLEAWCAVMY) [compound 59], the “HERCEPTIN S/W” value is reported as 0.0 and the “HERCEPTIN S/N” value is reported as 1.2.

In the case of 60 (LAADDLESWCHVMY) [compound 60], the “HERCEPTIN S/W” value is reported as 0.0 and the “HERCEPTIN S/N” value is reported as 1.2.

61 (APADDLASWCHVMY) [compound 61] was tested, and the “HERCEPTIN S/W” value was 0.0 and the “HERCEPTIN S/N” value was 1.3.

For 62 (VASDDLASWCHAMY) [compound 62], the “HERCEPTIN S/W” value was 0.0 and the “HERCEPTIN S/N” value was 1.3.

In the case of 63 (VPADDLASWCHVMY) [compound 63], the “HERCEPTIN S/W” value is reported as 0.0 and the “HERCEPTIN S/N” value is reported as 1.2.

With 64 (APADDLEFWCHVVY) [compound 64] the “HERCEPTIN S/W” value was 0.0 and the “HERCEPTIN S/N” value was 1.4.

65 (VPSDDLAFWCHVMY) [compound 65] was tested, and the “HERCEPTIN S/W” value was 0.0 and the “HERCEPTIN S/N” value was 1.3.

66 (VPADALAVWCDVMY) [compound 66] was tested, and the “HERCEPTIN S/W” value was 0.0 and the “HERCEPTIN S/N” value was 1.3.

In the case of 67 (VPADDLAFWCHVMY) [compound 67], the “HERCEPTIN S/W” value is reported as 0.0 and the “HERCEPTIN S/N” value is reported as 1.3.

In the case of 68 (VPSDDLASWCHVMY) [compound 68], the “HERCEPTIN S/W” value is reported as 0.0 and the “HERCEPTIN S/N” value is reported as 1.4.

69 (VPSADLESWCHVMY) [compound 69] was tested, and the “HERCEPTIN S/W” value was 0.0 and the “HERCEPTIN S/N” value was 1.6.

70 (AASDDLEAWCHVMY) [compound 70] was tested, and the “HERCEPTIN S/W” value was 0.0 and the “HERCEPTIN S/N” value was 1.4.

71 (APSDDLASWCHVMY) [compound 71] was tested, and the “HERCEPTIN S/W” value was 0.0 and the “HERCEPTIN S/N” value was 1.1.

With 72 (APADDLEFWCHVMY) [compound 72] the “HERCEPTIN S/W” value was 0.0 and the “HERCEPTIN S/N” value was 1.2.

73 (APSDDLAAWCHVMY) [compound 73] was tested, and the “HERCEPTIN S/W” value was 0.0 and the “HERCEPTIN S/N” value was 1.3.

74 (APADDLAFWCHVVY) [compound 74] was tested, and the “HERCEPTIN S/W” value was 0.0 and the “HERCEPTIN S/N” value was 1.3.

In the case of 75 (APSDDLEAWCDVMY) [compound 75], the “HERCEPTIN S/W” value is reported as 0.0 and the “HERCEPTIN S/N” value is reported as 1.3.

With 76 (VPSDDLEAWCDVMY) [compound 76] the “HERCEPTIN S/W” value was 0.0 and the “HERCEPTIN S/N” value was 1.3.

With 77 (AASDDLAFWCHVMY) [compound 77] the “HERCEPTIN S/W” value was 0.0 and the “HERCEPTIN S/N” value was 1.1.

For 78 (VPADDLASWCDVMY) [compound 78], the “HERCEPTIN S/W” value was 0.1 and the “HERCEPTIN S/N” value was 1.9.

For 79 (LPSADLESWCHVMY) [compound 79], the “HERCEPTIN S/W” value was 0.0 and the “HERCEPTIN S/N” value was 1.4.

With 80 (AAADDLAFWCHVMY) [compound 80] the “HERCEPTIN S/W” value was 0.0 and the “HERCEPTIN S/N” value was 1.4.

81 (LASDDLEFWCHVMY) [compound 81] was tested, and the “HERCEPTIN S/W” value was 0.0 and the “HERCEPTIN S/N” value was 1.2.

With 82 (LPAADLAAWCHVMY) [compound 82] the “HERCEPTIN S/W” value was 0.0 and the “HERCEPTIN S/N” value was 1.2.

For 83 (VPSADLETWCHVMY) [compound 83], the “HERCEPTIN S/W” value was 0.0 and the “HERCEPTIN S/N” value was 1.4.

In the case of 84 (LPADDLAAWCHVMY) [compound 84], the “HERCEPTIN S/W” value is reported as 0.0 and the “HERCEPTIN S/N” value is reported as 1.4.

For 85 (PPADDLAFWCDVMY) [compound 85], the “HERCEPTIN S/W” value was 0.0 and the “HERCEPTIN S/N” value was 1.1.

For 86 (VASDDLASWCHVVY) [compound 86], the “HERCEPTIN S/W” value was 0.0 and the “HERCEPTIN S/N” value was 1.2.
